Key:
[1] = tested on: MSCs positive for CD73, CD90, CD105, CD44; test: Expression analysis of MSC surface antigens (flow cytometry); type: cell-based, human; conditions: cultured 2 weeks in the presence of rh Activin A; FIG. 6A
Description: Cells were isolated by treatment with TrypLE (Thermo Fisher Scientific, MA, USA) for 5 minutes and stained with antibodies as described in Tsuji K. et al, Cell Transplant. 2017, 26(6), pp. 1089 to 1102. The surface antigen positive cell fraction was then measured using FACS Verse Flow Cytometer (BD Biosciences). Note that fluorochrome-conjugated antibodies for the analysis of cell surface markers (CD73, CD90, CD105, and CD44) were purchased from BD Biosciences (NJ).
To evaluate the effect of activin on the stemness of MSCs, they were cultured for 2 weeks in the presence of rh Activin A, and changes in the expression level of MSC surface antigens were examined by flow cytometric analysis.

synovial MSCs = test: In-vitro differentiation assay of MSCs (cartilage, bone, adipocytes); type: cell-based, human
Description: In-vitro differentiation assays were performed according to the method described in Colter D C. et al, Proc Natl Acad Sci USA, 2001, 98, pp. 7841 to 7845.
To form chondrogenic spheroids, 2.5×10^5 cells were transferred into 15 mL polypropylene tubes (BD Biosciences) and subjected to centrifugation at 450×g for 10 minutes. Then, the cell pellets were cultured in chondrogenic medium containing 1000 ng/mL rhBMP-2 (Infuse Bone Graft; Medtronic, TN, USA), 10 ng/mL […], and 100 nM dexamethasone (Sigma-Aldrich, MO, USA) for 14 days.
For calcification, cells were cultured in normal growth medium supplemented with 1 nM dexamethasone, 20 mM β-glycerophosphate, and 50 μg/mL ascorbic acid-2-phosphate (Sigma-Aldrich) for 21 days. Calcified nodule formation was visualized by alizarin red staining (Sigma-Aldrich).
For adipogenesis, the cells were cultured for 21 days in MEM-alpha supplemented with 10% FBS, 100 nM dexamethasone (Sigma-Aldrich), 0.5 mM IBMX (isobutyl-1-methylxanthine; Sigma-Aldrich), and 50 μM indomethacin (Wako, Tokyo, Japan). The adipogenic cultures were immobilized and stained with Oil Red O solution (Sigma-Aldrich).

C57BL/6J mice = test: Medial meniscus anterior 1/2 resection model; type: in vivo, mouse
From the text: Twenty male C57BL/6J mice (8 weeks old, weight: about 25 g) were used for this study (5 mice in each group. ORIENTAL YEAST Co., Ltd. Tokyo, Japan). After anesthesia by isoflurane inhalation, a straight incision was made in the left anterior knee, and the anterior central side of the joint capsule was cut. The patellar tendon was then dislocated laterally to expose the anterior corner of the medial meniscus (see Hiyama K. et al, J Orthop Res., 2017, 35(9), pp. 1958 to 1965). The anterior corner of the meniscus was cut and dislocated anteriorly using forceps. The medial meniscus was cut perpendicularly at the medial collateral ligament, and the anterior portion of the medial meniscus was resected in a microscopic operation using a surgical microscope. The skin was closed in layers with non-absorbable sutures. Note that the right knee was subjected to sham surgery. In addition, the mice were kept under a 12-hour light/dark cycle with free movement, free feeding, and drinking water.
Recombinant human Activin A (42 ng/6 μL in PBS) and/or rh PDGF-AA (174 ng/6 μL in PBS) was injected intra-articularly on postoperative day 7 (see Hoshino T. et al., BMC Musculoskelet Disord., 2018, 19(1): 291). […]
Tissue samples were fixed in 4% paraformaldehyde for 3 to 4 days and subjected to decalcification in 20% ethylenediaminetetraacetic acid (EDTA) solution for 21 days. Then, they were embedded in paraffin wax. The specimens were then cut to a 5 μm thickness in the sagittal plane and stained with safranin O/Fast Green or hematoxylin/eosin (H&E) to histologically evaluate meniscus regeneration.
A modified Pauli's score system was used to histologically quantify meniscus regeneration (see Hiyama K. et al, J Orthop Res. 2017, 35(9), pp. 1958 to 1965). Histological evaluation was performed by two investigators in a blind manner.
Type I and II collagen immunostaining was performed as described in Tsuji K. et al, Cell Transplant., 2017, 26(6), pp. 1089 to 1102. That is, sections were subjected to deparaffinization with xylene (Wako Pure Chemical Industries, Tokyo, Japan), rehydrated stepwise with alcohol, and saturated with phosphate buffered saline (PBS). For type II collagen staining, the samples were pretreated with 50 mM Tris-HCl buffer (Wako Pure Chemical Industries) containing 0.4 mg/ml Proteinase K (Dako, Agilent Technologies, Santa Clara, Calif., USA) for 10 min. For type I collagen staining, no digestion with Proteinase K was performed.
Next, the cells were treated with methanol containing 0.3% hydrogen peroxide for 30 minutes to suppress the activity of endogenous peroxidase. As primary antibodies, anti-type I collagen antibody (1:200 dilution; Abcam cat. #ab34712, Cambridge, UK) or anti-type II collagen antibody (1:1000 dilution; Abcam […], Cambridge, UK) were added to the sections and incubated at 4° C. overnight. Then, the sections were rinsed with 0.1% PBS-Triton X-100 (MP Biomedicals Inc., Solon, Ohio, USA) and incubated with secondary antibodies diluted 1:200 [Biotinylated goat-derived anti-rabbit immunoglobulin G (IgG), Vector Laboratories, Burlingame, Calif., USA]. Then, the sections were rinsed, the signals were visualized with Vectastain ABC Reagent (Vector Laboratories), and diaminobenzidine staining (DAB, Vector Laboratories) was applied. In addition, the sections were contrast stained with hematoxylin (Muto Pure Chemicals, Tokyo, Japan).

proteoglycans = conditions: cited from earlier work
[2] = tested on: rheumatoid arthritis-derived synovial cells (mesenchymal cells); conditions: cited from earlier work

## Activin A: homodimer of two inhibin βA chains; recombinant human protein purchased from R&D Systems
[1]
  cell population positive for MSC-related antigens (CD73, CD90, CD105, CD44): no change
Synovial MSCs; added to chondrogenic differentiation medium, pellet culture 2 weeks, FIG. 6C
  production of cartilage matrix: no significant promotive effect
Synovial MSCs; after 2 weeks of culture in the presence of Activin A, vs control, FIG. 6B
  differentiation induction toward chondrocytic, osteoblastic and adipocytic cells: no significant changes
C57BL/6J mice; 42 ng/knee intra-articular on day 7, 10 days after resection, FIG. 7A
  regenerated meniscus tissue (histology): more uniform regenerated meniscus tissue, was induced
C57BL/6J mice; 10 days after resection, vs control and PDGF groups, FIG. 7A
  staining property of safranin O (proteoglycans): enhanced
C57BL/6J mice; 21 days after resection (day 14 after administration), FIG. 7B
  regenerated meniscus tissue (histology): uniform regeneration of cartilage-like tissue was observed
C57BL/6J mice; 21 days after resection, FIG. 7B
  expression of type II collagen: Uniform expression
C57BL/6J mice; 56 days after resection (day 49 after administration), FIG. 7C
  regenerated meniscus tissue (histology): formation of bone marrow-like tissue
C57BL/6J mice; 84 days after resection (day 77 after administration), FIG. 7D
  regenerated meniscus tissue (histology): regenerated tissue image very close to that of a normal meniscus
C57BL/6J mice; day 10, 21, 56 and 84 after meniscectomy, FIG. 7E
  meniscus regeneration process, modified Pauli's score: significantly accelerated
C57BL/6J mice; intra-articular on day 7, 10 days after resection, FIG. 7A
  vascular invasion in the regenerated region: almost completely suppressed
C57BL/6J mice; regenerated tissues administered with activin
  osteoinduction in regenerated tissues: no osteoinduction was observed
proteoglycans
  expression of proteoglycans: promotes the expression of proteoglycans
[2]
  proliferation of rheumatoid arthritis-derived synovial cells: promotes the proliferation

Reference: US20220160779A1, “COMPOSITION FOR PROMOTING CARTILAGE TISSUE REGENERATION” (National University Corporation Tokyo Medical and Dental …, priority 2019, published 2022)
